Measured values from the NIST ThermoML archive (doi:10.1016/j.fluid.2017.09.010).
Numbers after ± are expanded uncertainties. Values belong to the molecule of their own block, whether it stands above or below them.

Conditions: Liquid, Ebulliometric method (Recirculating still)

vapor or sublimation pressure (361.8 K): 101 ± 1 kPa
Structure (SMILES): CC(=O)OC(C)C [1-methylethyl ethanoate]

vapor or sublimation pressure (355.4 K): 101 ± 1 kPa
Structure (SMILES): CC(C)O [propan-2-ol]

vapor or sublimation pressure (374.2 K): 101 ± 1 kPa
Structure (SMILES): CCCOC(C)=O [propyl ethanoate]

vapor or sublimation pressure (373 K): 101 ± 5 kPa
Structure (SMILES): O [water]
